Assay [1] concerns HIV-RT M184V and M184I. Particulars: cited from earlier work.
Assay [2] concerns the target T1, HIV-RT Q151M mutation (Human immunodeficiency virus type 1 group M subtype B, UniProt P03366, Q750M). Particulars: cited from earlier work.
The target of assay [3] is T1, HIV-RT Q151M mutation. As to conditions: cited from earlier work. The source holds these as a separate data set.
For assay [4], the target named is HBV core protein mutants (Hepatitis B virus genotype D subtype ayw, UniProt P03146, F110I). As to conditions: cited from earlier work.
The target in assay [5] is HBV core protein mutants (Hepatitis B virus genotype D subtype ayw, UniProt P03146, F23Y). As to conditions: cited from earlier work.
Assay [6] deals with HBV core protein mutants (Hepatitis B virus genotype D subtype ayw, UniProt P03146, L30F). As to conditions: cited from earlier work.
Assay [7] deals with HBV core protein mutants (Hepatitis B virus genotype D subtype ayw, UniProt P03146, T33Q). As to conditions: cited from earlier work.
Assay [8] has as its target HBV wild-type (Hepatitis B virus genotype D subtype ayw, UniProt P03146).
Assay [9] deals with T109 mutant (Hepatitis B virus genotype D subtype ayw, UniProt P03146, T109I).
In assay [10] the target is HBV core protein mutants (Hepatitis B virus genotype D subtype ayw, UniProt P03146, T109I). As to conditions: cited from earlier work.
Assay [11] deals with HBV core protein mutants (Hepatitis B virus genotype D subtype ayw, UniProt P03146, L140I). Particulars: cited from earlier work.
Assay [12] addresses HBV core protein mutants (Hepatitis B virus genotype D subtype ayw, UniProt P03146, T128I). As to conditions: cited from earlier work.

In the case of `Nc1nc(=O)n([C@@H]2CS[C@H](CO)O2)cc1F` [(-)-FTC, emtricitabine], the fold resistance in [1] was 500-1000 fold. For the same molecule, the “fold reduction of EC50” value in assay [2] was 2 fold. The Enzymatic sensitivity result in assay [3] is on record as “remains sensitive”.

Take `COC(=O)C1=C(C)NC(c2ncc(F)cc2F)=N[C@H]1c1ccc(F)cc1Cl` [BAY41-4109]: the Reported resistance mutation result in [4] was “reported”; in assay [5] it was “resistance mutations”; in assay [6], “resistance mutations”; in [7], “resistance mutation”.

Turning to `C#CCNC(=O)C(=O)c1c(C)c(C(=O)Nc2ccc(F)c(F)c2)n(C)c1C` [GLP-26], the “Effect on HBeAg production (sensitive / resistant)” value in assay [8] is listed as “Sensitive”. In assay [9], the “Reduction of cccDNA” value was “susceptible”.

`CCOC(=O)C1=C(CN2CCOCC2)NC(c2nccs2)=NC1c1ccc(F)cc1Br` (stereo not drawn) [GLS4]: the Reported resistance mutation entry in assay [10] is recorded as “resistant”.

Consider `C[C@H](NS(=O)(=O)c1cc(C(=O)Nc2ccc(F)c(C#N)c2)n(C)c1)C(F)(F)F` [JNJ-6379], for which the Reported resistance mutation result in assay [4] is given as “reported”; in assay [5], “resistance mutations”; in assay [11], “reported”; in [6] it was “resistance mutations”; in [12] it was “reported”.
